Drawing on PubChem BioAssay (NCI), this text covers TGI for 15 molecules.

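Each compound was tested at five concentrations against cells in 96-well plates for 48 hours. The concentration for full growth arrest is given as TGI.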

Among the test systems are UACC-257 melanoma; 786-0 renal; KM12 colon; ACHN renal; NCI/ADR-RES ovarian; MDA-N; MOLT-4 leukemia; M14 melanoma; HOP-92 NSCLC; HL-60(TB) leukemia; HS 578T breast.
Holding throughout (assay): NCI anticancer screen, dose series, 48 h

On to `COc1cc(/C=C2\C[C@H]3[C@@H]4CCc5cc(O)ccc5[C@H]4CC[C@]3(C)C2=O)cc(OC)c1OC`, for which the TGI in the experiment with UACC-257 melanoma worked out at 34.1 µM; in the experiment on 786-0 renal it was 57.7 µM; in the experiment on KM12 colon, 38.1 µM; in the experiment on ACHN renal, 38.7 µM; with NCI/ADR-RES ovarian, 39.5 µM; in the experiment with MDA-N it was 62.3 µM. The TGI with MOLT-4 leukemia is 23.1 µM; with M14 melanoma, 37.7 µM.

As to `CO/N=C/c1cc(OC)c(OC)c(OC)c1`, the TGI in the experiment with HOP-92 NSCLC, with UACC-257 melanoma, in the experiment on 786-0 renal, with KM12 colon, in the experiment on HL-60(TB) leukemia and in the experiment with ACHN renal was over 100 µM in each case. Further, the TGI with MOLT-4 leukemia and in the experiment on M14 melanoma was over 100 µM each time.

`C=C(CCC/C(C)=C/C=C/[C@]1(C)CCCc2ccoc21)CC(=O)O`: the TGI in the experiment on HOP-92 NSCLC, in the experiment with UACC-257 melanoma, in the experiment with 786-0 renal, in the experiment on KM12 colon, in the experiment with HL-60(TB) leukemia and with ACHN renal was over 100 µM throughout. In addition, the TGI with NCI/ADR-RES ovarian, in the experiment on HS 578T breast, in the experiment on MOLT-4 leukemia and with M14 melanoma was over 100 µM throughout.

Turning to `CC(C)(C)[Si](OC1CC(n2cnc3c(N)ncnc32)OC1CO)(c1ccccc1)c1ccccc1` (configuration not stated), the TGI with HOP-92 NSCLC is 47.3 µM; with UACC-257 melanoma, over 100 µM; in the experiment on KM12 colon, 38.9 µM; with HL-60(TB) leukemia, over 100 µM; in the experiment with ACHN renal it was 31.8 µM; in the experiment on MOLT-4 leukemia, over 100 µM. Also, the TGI in the experiment with M14 melanoma is over 100 µM.

As to `COc1ccc(C2C(Cl)C(=O)N2n2cnc3ccccc3c2=O)cc1` (configuration not stated), the TGI in the experiment on UACC-257 melanoma, in the experiment with 786-0 renal, with KM12 colon, in the experiment with HL-60(TB) leukemia, in the experiment on ACHN renal and in the experiment on MOLT-4 leukemia was over 100 µM in each case. In the experiment with M14 melanoma, this molecule came in with a TGI of 91.6 µM.

Regarding `CCOC(=O)C1=C(C)N(Cc2ccc(Cl)cc2Cl)C2(O)C=CC(=O)C3C(=O)N(c4ccccc4)C(=O)C132` (configuration not stated), the TGI was 4.09 µM with HOP-92 NSCLC; 5.81 µM with UACC-257 melanoma; over 100 µM with 786-0 renal; 3.65 µM in the experiment with KM12 colon; 6.67 µM in the experiment with HL-60(TB) leukemia; 3.08 µM with ACHN renal. The TGI worked out at 11.1 µM in the experiment with NCI/ADR-RES ovarian, 36.3 µM in the experiment on HS 578T breast, 4.93 µM in the experiment with MOLT-4 leukemia and 16 µM with M14 melanoma.

On to `CS(=O)(=O)O[C@H]1CN2C[C@@H](O)[C@@H](O)[C@H]2[C@H]1CO`, for which the TGI in the experiment on UACC-257 melanoma, in the experiment with 786-0 renal, with KM12 colon, in the experiment on ACHN renal, in the experiment on NCI/ADR-RES ovarian and in the experiment on MOLT-4 leukemia was over 100 µM throughout. Also, the TGI with M14 melanoma was over 100 µM.

For the molecule `O=C(NC(Cc1c[nH]c2ccccc12)C(=O)Nc1ccc(Br)cc1)OCc1ccccc1` (configuration not stated), the TGI is 19.1 µM in the experiment with HOP-92 NSCLC; 23.5 µM with UACC-257 melanoma; 25.2 µM with 786-0 renal; 21.7 µM in the experiment on KM12 colon; 22.2 µM in the experiment on HL-60(TB) leukemia; 60.3 µM in the experiment with ACHN renal. The TGI with NCI/ADR-RES ovarian amounted to 54.3 µM; in the experiment with HS 578T breast, 56.3 µM; with MOLT-4 leukemia, 38.9 µM; with M14 melanoma it was 27.6 µM.

As to `OCCCCCCCCCCCOc1ccc(C2OCC3(CO2)COC(c2ccc(OCCCCCCCCCCCO)cc2)OC3)cc1` (configuration not stated), the TGI in the experiment with UACC-257 melanoma, in the experiment with 786-0 renal, in the experiment on KM12 colon, with ACHN renal, with NCI/ADR-RES ovarian and with MDA-N was over 50 µM in each case. The TGI in the experiment with HS 578T breast, with MOLT-4 leukemia and in the experiment with M14 melanoma was over 50 µM throughout.

Regarding `FC(F)(F)c1ccc(N=C/C=C(/Nc2ccc(C(F)(F)F)cc2)c2ccc(Cl)cc2)cc1`, the TGI with HOP-92 NSCLC turned out to be 51.4 µM; in the experiment with UACC-257 melanoma, 38.3 µM; with 786-0 renal it was 37.9 µM; in the experiment with KM12 colon, 28.6 µM; in the experiment with HL-60(TB) leukemia it was 65.5 µM; in the experiment on ACHN renal, 26.2 µM. Further, the TGI with NCI/ADR-RES ovarian is 32.3 µM; in the experiment on HS 578T breast, 38.2 µM; in the experiment on MOLT-4 leukemia, over 100 µM; in the experiment on M14 melanoma, 30.5 µM.

In the case of `NC1CC(=O)c2c(Br)csc21` (configuration not stated), the TGI in the experiment with UACC-257 melanoma is over 100 µM; with 786-0 renal it was over 100 µM; with KM12 colon, over 100 µM; with HL-60(TB) leukemia it was 81.9 µM; in the experiment with ACHN renal, over 100 µM; with NCI/ADR-RES ovarian it was over 100 µM. Besides, the TGI in the experiment with MDA-N, in the experiment on MOLT-4 leukemia and in the experiment on M14 melanoma was over 100 µM in each case.

As for `Cc1cc(C)nc(NC(=O)c2ccc(Br)s2)c1`, the TGI in the experiment with HOP-92 NSCLC, in the experiment with UACC-257 melanoma, in the experiment on 786-0 renal, in the experiment with KM12 colon, with ACHN renal and with NCI/ADR-RES ovarian was over 100 µM each time. In addition, the TGI was over 100 µM with MDA-N, over 100 µM with MOLT-4 leukemia and 79.5 µM with M14 melanoma.

As to `CCOc1cc2c(OCc3ccccc3)cc3c4cc(OC)c(OC)cc4c[n+](C)c3c2cc1OC`, the TGI with HOP-92 NSCLC was 2.08 µM; with UACC-257 melanoma, 4.95 µM; in the experiment on 786-0 renal, 26.6 µM; in the experiment on ACHN renal, over 75.2 µM; with NCI/ADR-RES ovarian, over 100 µM; in the experiment with MOLT-4 leukemia it was over 20.3 µM. In the experiment on M14 melanoma, this molecule came in with a TGI of 9.73 µM.

For `COc1cc2cc3c4c(cc(OC)c(OC)c4c2cc1OC)CCN3C(=O)OCCN1CCNCC1`, the TGI with HOP-92 NSCLC was 26.2 µM; in the experiment on UACC-257 melanoma, 29.1 µM; in the experiment with 786-0 renal it was 23.8 µM; with KM12 colon, 28.3 µM; in the experiment on HL-60(TB) leukemia, 30 µM; with ACHN renal, 28.3 µM. The TGI in the experiment with MOLT-4 leukemia worked out at 34.8 µM; in the experiment on M14 melanoma, 27.9 µM.

Consider `CNc1ccc(C(=O)CC(O)CCC(C)C2OC(=O)CC(O)CC(=O)CC(O)CC(O)CC(O)CC(O)CC3(O)CC(O)C(C(=O)NCCN(C)C)C(CC(OC4OC(C)C(O)C(NC(=O)CN5CCN(C)CC5)C4O)/C=C/C=C/C=C/C=C\C=C/C=C/C=C/C2C)O3)cc1` (configuration not stated), for which the TGI in the experiment on HOP-92 NSCLC was over 100 µM; in the experiment on UACC-257 melanoma it was 71 µM; with 786-0 renal, over 100 µM; with HL-60(TB) leukemia it was over 100 µM; in the experiment with NCI/ADR-RES ovarian it was over 100 µM; in the experiment on MDA-N, over 100 µM. The TGI in the experiment with MOLT-4 leukemia and in the experiment with M14 melanoma was over 100 µM each time.
